Reference: patent US20150258062A1, “COMPOSITIONS AND METHODS FOR TREATMENT OF RENAL DISEASE” (priority 2009, published 2015)

Key:
Inward Calcium current = conditions: Table 1; cited from earlier work
[1] = system: Outward potassium current; conditions: Table 1; cited from earlier work
Inward sodium current = conditions: Table 1; cited from earlier work
[2] = Clinic case studies: serum laboratory profile (uric acid, potassium, creatinine, urea nitrogen); assay type: in vivo, human
[3] = system: ventricular repolarization, QT interval and Torsade; conditions: cited from earlier work
[4] = Clinic case studies: blood pressure, pulse, body weight, edema, GFR, EKG; assay type: in vivo, human
[5] = system: slow component of the delayed rectifier K+ current (IKs); conditions: cited from earlier work
[6] = system: non-diabetic patients already receiving dual therapy with both an ACEI plus an ARB agent; conditions: after 1 year; non-diabetic patients on ACEI plus ARB; independent of BP changes; cited from earlier work

uric acid ([2]; Case 1, Day 25, indapamide 2.5 mg with losartan 50 mg, terazosin 2 mg) | creatinine ([2]; Case 1, Day 25, indapamide 2.5 mg with losartan 50 mg, terazosin 2 mg, Day 0 value 2.3) | urea nitrogen ([2]; Case 1, Day 25, indapamide 2.5 mg with losartan 50 mg, terazosin 2 mg, Day 0 value 46) | serum uric acid ([2]; Case 4, indapamide 1.25 mg per day with losartan, amlodipine, after 9 months, baseline 7.5) | serum potassium ([2]; Example 3 Case 1, stage 4 CKD, Day 25, on indapamide 2.5 mg, losartan 50 mg, terazosin 2 mg since Day 13, Day 0 value 5.2) | serum creatinine and urea nitrogen ([2]; Example 3 Case 4, diabetic nephropathy, losartan 100 mg, amlodipine 5 mg, indapamide 1.25 mg per day, after 9 months) | SMILES | action on inward calcium current (Inward Calcium current) | action on outward potassium current [1] | action on inward sodium current (Inward sodium current) | QT dispersion ([3]; Table 1) | QT interval ([3]; Table 1) | Torsade ([3]; Table 1) | QT interval and torsade de pointes in patients ([3]; in the presence of normal electrolytes (Letsas, Alexanian et al. 2006)) | pedal edema ([4]; Case 1, Day 34, indapamide 2.5 mg with losartan 50 mg, terazosin 2 mg, before spironolactone) | blood pressure ([4]; Case 1, Day 34, indapamide 2.5 mg with losartan, terazosin, Day 13 value 142/82) | blood pressure ([4]; Example 3 Case 2, diabetic nephropathy, 6 months, 1 month after indapamide 1.25 mg, diltiazem 300 mg started and losartan raised to 100 mg, before 168/108) | effect on IKs [5] | additive reduction of proteinuria [6]
– | – | – | – | – | – | C[C@]12CCC(=O)C=C1CC[C@@H]1[C@@H]2[C@@H](O)C[C@]2(C=O)[C@@H](C(=O)CO)CC[C@@H]12 [Aldosterone] | Increases | No effect | Incresases | – | – | – | – | – | – | – | – | –
7.5 mg/dL | 2.6 mg/dL | 36 mg/dL | 7.0 mg/dL | 4.1 mmol/L | unchanged | CC1Cc2ccccc2N1NC(=O)c1ccc(Cl)c(S(N)(=O)=O)c1 (stereo not drawn) [indapamide, 4-chloro-N-(2-methyl-2,3-dihydroindol-1-yl)-3-sulfamoyl-benzamide] | No effect | Slows | No effect | increased | prolongs | prediposes | QT interval prolongation and torsade de pointes | decreased | 150/90 | 145/93 | blocks | –
– | – | – | – | – | – | CC(=O)S[C@@H]1CC2=CC(=O)CC[C@]2(C)[C@H]2CC[C@@]3(C)[C@@H](CC[C@@]34CCC(=O)O4)[C@H]12 [spironolactone] | – | – | – | – | – | – | – | – | – | – | – | 58%
